A short description of series [1]: Stability of 5-ALA / product. Type of series: physicochemical. Conditions: different storage conditions.
For series [2] the following is noted: aqueous solution; cited from earlier work.
The conditions of series [3]: cited from earlier work.

In the case of `NCC(=O)CCC(=O)O` [5-ALA, 5-aminolevulinic acid], in series [1], the “long-term stability in double chamber tube” value is “long-term stable at different storage conditions without degradation”. In series [2], the “pH of best stability of aqueous solutions” value is on record as less than 6. Further, in series [3], the “sensitivity to daylight after treatment” value was 1 to 2 days.

Turning to Porfimer Sodium [Photofrin], the “sensitivity to daylight after treatment” value in series [3] was 30 to 60 days.

The values above are taken from patent publication US10786571B2, “Hydrophilic gel for topical delivery of 5-aminolevulinic acid” (Zimmer Biotech GmbH, priority 2015, dated 2020).
